In US8506950B2, “Degradable microcapsules” (ETH Zurich, priority 2008, dated 2013):
Where “and” joins values, the source holds several entries; their conditions need not be identical. Equal values may be shown once.

What was measured:
rLHR [1] = biological target: T1, rLHR (Rattus norvegicus, UniProt P16235); experiment: bLH-dependent disruption of CS/pDADMAC microcapsules containing CK04 cells transfected with pCK71; type: cell-based; set-up: Full-length cDNAs encoding the LHRs of rat (r) and bovine (b) origin; expressed in transfected cells; host or cells: CK04: HEK293T stably cotransfected with pLEN-rLHR and pZeoSV2(+), clone 6; details: 500 ng/ml bLH, 24 hours post-induction
Protocol: (A) Phase-contrast photomicrographs of CS/pDADMAC encapsulated CK04 cells transiently transfected for PCRE controlled cellulase expression (pCK71, PCRE-cellulase-pA). The microcapsules were cultured in the absence or presence of 500 ng/ml bLH. In the presence of bLH the capsules were disrupted by the induced expression of cellulase whereas the non-induced capsules remained intact. Arrows indicate the disrupted capsules.
(B) Quantification of microcapsule disruption. Per sample approximately 150 capsules were counted and the amount of capsule disruption was calculated. 24 hours post-induction 98% of the capsules were disrupted by the induced cellulase. […]
Cells were encapsulated using the Inotech Encapsulator Research Unit IE-50R (Inotech Biotechnologies Ltd, Basel, Switzerland). […] The cells were counted using a Casy Counter (Scharfe Systems, Reutlingen, Germany) and 1×10^6 cells were resuspended in sodium […] sulfate solution (2% (w/v) in PBS, CS, Euroferm, Erlangen, Germany, Batch-No: FCY-06A) and aseptically encapsulated according to the standard protocol using the following settings: 0.2 mm nozzle with a nozzle vibration frequency of 1250 Hz, 20 ml syringe at a flow rate of 410 units, voltage for bead dispersion 1.15 kV. […]

rLHR [2] = biological target: T1, rLHR; experiment: PCRE controlled luciferase expression in HEK293T transiently transfected with rLHR; type: cell-based; set-up: Full-length cDNAs encoding the LHRs of rat (r) and bovine (b) origin; expressed in transfected cells; host or cells: HEK293T, transient transfection with pLEN-rLHR; details: 500 ng/ml bLH, 6 h post-induction, pLEN-rLHR + pCRE-Luc
Protocol: HEK293T cells were transiently transfected for rLHR and PCRE controlled luciferase expression. 24 hours after transfection the cells were transferred to a 96-well plate, cultured for 12 h and induced by the addition of 500 ng/ml bLH. The luciferase expression was measured 6 h post-induction. […] Luciferase expression was expressed as relative light units (RLU).
Functional expression of LHRs on the cell surface results in the stimulation of PKA and an increase of intracellular cAMP in response to bLH. It was evaluated whether the activated LHR-signaling may induce a PKA-responsive promoter. […] 24 hours post-transfection the cells were induced by bLH and the SEAP expression was determined over time. […] In comparing rLHR- and bLHR-expressing cells a 3-fold increase in maximal SEAP expression in response to bLH of the rLHR over the bLHR was detected. […]
The intracellular cAMP production of cells was quantified using the cAMP Fluorescence Polarization (FP) Biotrak Immunoassay System (GE Healthcare Bio-Sciences GmbH, Otelfingen, Switzerland, Cat No. RPN3595) according to the manufacturer's protocol. The expression of firefly luciferase was determined with the Tropix Luciferase Assay Kit (Applied Biosystems, Bedford, USA, Cat No. BC100L). […] Enhanced YFP-expression was detected by fluorescence microscopy (Leica Microsystems, Wetzlar, Germany)

T1 sequence (P16235 27-700): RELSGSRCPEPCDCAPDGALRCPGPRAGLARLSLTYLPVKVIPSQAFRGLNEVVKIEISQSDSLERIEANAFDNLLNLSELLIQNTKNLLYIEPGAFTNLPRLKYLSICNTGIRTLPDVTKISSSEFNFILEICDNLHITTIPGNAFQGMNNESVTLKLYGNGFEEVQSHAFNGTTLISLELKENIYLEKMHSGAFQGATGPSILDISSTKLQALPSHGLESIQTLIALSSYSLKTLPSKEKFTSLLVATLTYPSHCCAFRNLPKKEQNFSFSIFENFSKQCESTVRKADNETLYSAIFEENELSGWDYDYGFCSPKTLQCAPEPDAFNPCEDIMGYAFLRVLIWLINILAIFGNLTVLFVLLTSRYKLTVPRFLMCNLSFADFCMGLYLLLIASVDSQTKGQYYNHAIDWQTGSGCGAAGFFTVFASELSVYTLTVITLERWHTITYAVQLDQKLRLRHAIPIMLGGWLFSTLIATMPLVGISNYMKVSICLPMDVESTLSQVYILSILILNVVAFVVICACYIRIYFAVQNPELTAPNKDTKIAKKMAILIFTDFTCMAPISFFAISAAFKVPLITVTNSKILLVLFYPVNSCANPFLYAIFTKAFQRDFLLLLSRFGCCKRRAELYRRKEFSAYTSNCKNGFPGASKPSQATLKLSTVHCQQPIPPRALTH

bovine luteinizing hormone [bLH]
disrupted capsules (rLHR [1]): 98% | increase in luciferase expression (rLHR [2]): 10 fold and 9.9±0.1 fold
